Test: log P by HPLC
Type: physicochemical
[1] = HPLC, gradient method, acetonitrile/0.1% aqueous phosphoric acid, EEC directive 79/831 Annex V. A8
[2] = EEC directive 79/831 Annex V. A8 by HPLC (gradient method, acetonitrile/0.1% aqueous phosphoric acid)

SMILES | logP [1] | logP [2]
Cc1nc2nc(Cl)c(-c3ccccc3Cl)c(N3CC=CCC3)n2n1 [compound 228] | 0.75 | 
Cc1nc2nc(Cl)c(-c3ccccc3Cl)c(N3CCCC(C)C3)n2n1 (stereo not shown) [compound 229] | 3.92 | 
Cc1nc2nc(Cl)c(-c3ccccc3Cl)c(N3CCC(C)CC3)n2n1 [compound 230] | 3.94 | 
CC1=CCCN(c2c(-c3ccccc3Cl)c(Cl)nc3nc(C)nn23)C1 [compound 231] | 3.7 | 
Cc1nc2nc(Cl)c(-c3ccccc3Cl)c(N3CCC(C(F)(F)F)CC3)n2n1 [compound 232] | 3.63 | 
Cc1nc2nc(Cl)c(-c3ccccc3Cl)c(N3CCCCC3)n2n1 [compound 233] | 3.48 | 
Cc1nc2nc(Cl)c(-c3ccccc3Cl)c(N3CCOCC3)n2n1 [compound 234] | 2.38 | 
Cc1nc2nc(Cl)c(-c3ccccc3Cl)c(N3CCSCC3)n2n1 [compound 235] | 3.09 | 
COCCNc1c(-c2ccccc2Cl)c(Cl)nc2nc(C)nn12 [compound 236] | 2.3 | 
C#CCN(C)c1c(-c2ccccc2Cl)c(Cl)nc2nc(C)nn12 [compound 237] | 2.75 | 
Cc1nc2nc(Cl)c(-c3ccccc3Cl)c(N(C)Cc3ccco3)n2n1 [compound 238] | 3.2 | 
CCN(CC1CCCO1)c1c(-c2ccccc2Cl)c(Cl)nc2nc(C)nn12 (stereo not shown) [compound 239] | 3.23 | 
CCOC(=O)CN(CC)c1c(-c2ccccc2Cl)c(Cl)nc2nc(C)nn12 [compound 240] | 3.11 | 
CCCCN(CC)c1c(-c2ccccc2Cl)c(Cl)nc2nc(C)nn12 [compound 241] | 4.1 | 
CCN(CC)c1c(-c2ccccc2Cl)c(Cl)nc2nc(C)nn12 [compound 242] | 3.24 | 
CCCN(CC1CC1)c1c(-c2ccccc2Cl)c(Cl)nc2nc(C)nn12 [compound 243] | 4.07 | 
CCCN(CC1CCCO1)c1c(-c2ccccc2Cl)c(Cl)nc2nc(C)nn12 (stereo not shown) [compound 244] | 3.7 | 
Cc1nc2nc(Cl)c(-c3ccccc3Cl)c(N3CCC(O)C3)n2n1 (stereo not shown) [compound 245] | 0.75 | 
Cc1nc2nc(Cl)c(-c3c(F)cccc3Cl)c(N3CCOCC3)n2n1 [compound 246] | 2.48 | 
CCCCN(CC)c1c(-c2ccccc2Cl)c(Cl)nc2nc(C)nn12 [compound 247] | 4.18 | 
Cc1nc2nc(Cl)c(-c3c(F)cccc3Cl)c(NCC(C)C)n2n1 [compound 248] | 3.14 | 
Cc1nc2nc(Cl)c(-c3c(F)cccc3Cl)c(NCC(C)(C)C)n2n1 [compound 249] | 3.59 | 

SMILES | logP [1] | logP [2]
C=C(C)CNc1c(-c2c(F)cccc2Cl)c(Cl)nc2nc(C)nn12 [compound 250] | 2.8 | 
Cc1nc2nc(Cl)c(-c3c(F)cccc3Cl)c(N3CCCC3)n2n1 [compound 251] | 2.95 | 
CCN(CC)c1c(-c2c(F)cccc2Cl)c(Cl)nc2nc(C)nn12 [compound 252] | 3.33 | 
Cc1nc2nc(Cl)c(-c3c(F)cccc3Cl)c(NCC#N)n2n1 [compound 253] | 2.11 | 
Cc1nc2nc(Cl)c(-c3c(F)cccc3Cl)c(N3CCCCC3)n2n1 [compound 254] | 3.55 | 
Cc1nc2nc(Cl)c(-c3c(F)cccc3Cl)c(NC3CCCC3)n2n1 [compound 255] | 3.29 | 
Cc1nc2nc(Cl)c(-c3c(F)cccc3Cl)c(NC(C)C)n2n1 [compound 256] | 2.77 | 
COCCNc1c(-c2c(F)cccc2Cl)c(Cl)nc2nc(C)nn12 [compound 257] | 2.42 | 
Cc1nc2nc(Cl)c(-c3c(F)cccc3Cl)c(NC3CC3)n2n1 [compound 258] | 2.77 | 
Cc1nc2nc(Cl)c(-c3c(F)cccc3Cl)c(N3CCSCC3)n2n1 [compound 259] |  | 3.18
Cc1nc2nc(Cl)c(-c3c(F)cccc3Cl)c(NCC(F)(F)F)n2n1 [compound 260] |  | 2.77
Cc1nc2nc(Cl)c(-c3c(F)cccc3Cl)c(N3CCC(C(F)(F)F)CC3)n2n1 [compound 261] |  | 3.72
Cc1nc2nc(Cl)c(-c3c(F)cccc3Cl)c(N3CCC(C)CC3)n2n1 [compound 262] |  | 3.99
Cc1nc2nc(Cl)c(-c3c(F)cccc3Cl)c(NCC3CC3)n2n1 [compound 263] |  | 2.95
CCC(C)Nc1c(-c2c(F)cccc2Cl)c(Cl)nc2nc(C)nn12 (stereo not shown) [compound 264] |  | 3.14
Cc1nc2nc(Cl)c(-c3c(F)cccc3Cl)c(N3CC=CCC3)n2n1 [compound 265] |  | 3.33
Cc1nc2nc(Cl)c(-c3c(F)cccc3Cl)c(N3CCC(F)CC3)n2n1 [compound 266] |  | 3.07
C=CCN(CC)c1c(-c2c(F)cccc2Cl)c(Cl)nc2nc(C)nn12 [compound 267] |  | 3.59
CCN(CC1CCCO1)c1c(-c2c(F)cccc2Cl)c(Cl)nc2nc(C)nn12 (stereo not shown) [compound 268] |  | 3.29
CCN(CCOC)c1c(-c2c(F)cccc2Cl)c(Cl)nc2nc(C)nn12 [compound 269] |  | 3.03
CCOC(=O)CN(CC)c1c(-c2c(F)cccc2Cl)c(Cl)nc2nc(C)nn12 [compound 270] |  | 3.14
C#CCN(C)c1c(-c2c(F)cccc2Cl)c(Cl)nc2nc(C)nn12 [compound 271] |  | 2.77

SMILES | logP [1] | logP [2]
CCOC(=O)CN(C)c1c(-c2c(F)cccc2Cl)c(Cl)nc2nc(C)nn12 [compound 272] |  | 2.48
C=CCN(C)c1c(-c2c(F)cccc2Cl)c(Cl)nc2nc(C)nn12 [compound 273] |  | 3.26
Cc1nc2nc(Cl)c(-c3c(F)cccc3Cl)c(N(C)Cc3ccco3)n2n1 [compound 274] |  | 3.26
C=C(C)CN(C)c1c(-c2c(F)cccc2Cl)c(Cl)nc2nc(C)nn12 [compound 275] |  | 3.63
Cc1nc2nc(Cl)c(-c3c(F)cccc3Cl)c(N(C)CC(C)C)n2n1 [compound 276] |  | 3.68
CCCN(CC1CCCO1)c1c(-c2c(F)cccc2Cl)c(Cl)nc2nc(C)nn12 (stereo not shown) [compound 277] |  | 3.72
Cc1nc2nc(Cl)c(-c3c(F)cccc3Cl)c(N3CCC(O)C3)n2n1 (stereo not shown) [compound 278] |  | 2.02
Cc1nc2nc(Cl)c(-c3ccc(F)cc3F)c(N3CCCC3C)n2n1 (stereo not shown) [compound 280] |  | 3.14
Cc1nc2nc(Cl)c(-c3ccc(F)cc3F)c(N3CCCC3)n2n1 [compound 281] |  | 2.74
Cc1nc2nc(Cl)c(-c3ccc(F)cc3F)c(N3CCC(O)CC3)n2n1 [compound 282] |  | 1.9
Cc1nc2nc(Cl)c(-c3ccc(F)cc3F)c(N3CC=CCC3)n2n1 [compound 283] |  | 3.11
Cc1nc2nc(Cl)c(-c3ccc(F)cc3F)c(N3CCC4(CC3)OCCO4)n2n1 [compound 284] |  | 2.68
Cc1nc2nc(Cl)c(-c3ccc(F)cc3F)c(N3CCCCC3C)n2n1 (stereo not shown) [compound 285] |  | 3.7
Cc1nc2nc(Cl)c(-c3ccc(F)cc3F)c(N3CCCC(C)C3)n2n1 (stereo not shown) [compound 286] |  | 3.74
Cc1nc2nc(Cl)c(-c3ccc(F)cc3F)c(N3CCC(C)CC3)n2n1 [compound 287] |  | 3.75
Cc1nc2nc(Cl)c(-c3ccc(F)cc3F)c(N3CCC(C)(C)CC3)n2n1 [compound 288] |  | 4.01
CC(=O)C1CCN(c2c(-c3ccc(F)cc3F)c(Cl)nc3nc(C)nn23)CC1 [compound 289] |  | 2.5
CCC1=CCN(c2c(-c3ccc(F)cc3F)c(Cl)nc3nc(C)nn23)CC1 [compound 290] |  | 3.94
CC1=CCCN(c2c(-c3ccc(F)cc3F)c(Cl)nc3nc(C)nn23)C1 [compound 291] |  | 3.49
COC(=O)C1CCN(c2c(-c3ccc(F)cc3F)c(Cl)nc3nc(C)nn23)CC1 [compound 292] |  | 2.78
Cc1nc2nc(Cl)c(-c3ccc(F)cc3F)c(N3CCC(C(F)(F)F)CC3)n2n1 [compound 293] |  | 3.49
CC(=O)NC1CCN(c2c(-c3ccc(F)cc3F)c(Cl)nc3nc(C)nn23)CC1 [compound 294] |  | 1.85

SMILES | logP [1] | logP [2]
Cc1nc2nc(Cl)c(-c3ccc(F)cc3F)c(N3CCCCC3)n2n1 [compound 295] |  | 3.32
Cc1nc2nc(Cl)c(-c3ccc(F)cc3F)c(N3CCOCC3)n2n1 [compound 296] |  | 2.3
Cc1nc2nc(Cl)c(-c3ccc(F)cc3F)c(N3CCSCC3)n2n1 [compound 297] |  | 2.97
Cc1ccc(Nc2c(-c3ccc(F)cc3F)c(Cl)nc3nc(C)nn23)cc1 [compound 298] |  | 3.05
Cc1nc2nc(Cl)c(-c3ccc(F)cc3F)c(Nc3ccc(F)cc3)n2n1 [compound 299] |  | 2.7
Cc1nc2nc(Cl)c(-c3ccc(F)cc3F)c(N3CCc4ccccc4C3)n2n1 [compound 300] |  | 3.28
Cc1nc2nc(Cl)c(-c3ccc(F)cc3F)c(NC(C)CC(C)C)n2n1 (stereo not shown) [compound 301] |  | 3.7
Cc1nc2nc(Cl)c(-c3c(F)cccc3Cl)c(N3CCCC(C)C3)n2n1 (stereo not shown) [compound 302] |  | 3.99
Cc1nc2nc(Cl)c(-c3c(F)cccc3F)c(N3CCC(O)C3)n2n1 (stereo not shown) [compound 303] |  | 1.73
Cc1nc2nc(Cl)c(-c3c(F)cccc3F)c(N3CCCC3C)n2n1 (stereo not shown) [compound 304] |  | 3.02
CC(=O)NC1CCN(c2c(-c3c(F)cccc3F)c(Cl)nc3nc(C)nn23)C1 (stereo not shown) [compound 305] |  | 1.64
Cc1nc2nc(Cl)c(-c3c(F)cccc3F)c(N3CCC(N(C)C)C3)n2n1 (stereo not shown) [compound 306] |  | 1.18
Cc1nc2nc(Cl)c(-c3c(F)cccc3F)c(N3CCC(O)CC3)n2n1 [compound 307] |  | 1.83
Cc1nc2nc(Cl)c(-c3c(F)cccc3F)c(N3CC=CCC3)n2n1 [compound 308] |  | 3.01
Cc1nc2nc(Cl)c(-c3c(F)cccc3F)c(N3CCC4(CC3)OCCO4)n2n1 [compound 309] |  | 2.6
Cc1nc2nc(Cl)c(-c3c(F)cccc3F)c(N3CC(C)CC(C)C3)n2n1 (stereo not shown) [compound 310] |  | 4.08
Cc1nc2nc(Cl)c(-c3c(F)cccc3F)c(N3CCCCC3C)n2n1 (stereo not shown) [compound 311] |  | 3.57
Cc1nc2nc(Cl)c(-c3c(F)cccc3F)c(N3CCCC(C)C3)n2n1 (stereo not shown) [compound 312] |  | 3.63
Cc1nc2nc(Cl)c(-c3c(F)cccc3F)c(N3CCC(C)CC3)n2n1 [compound 313] |  | 3.64
